Data reported in patent US8722849B2, “Polypeptides” (Novo Nordisk A/S, priority 2011, dated 2014).
Values after ≈ are worked out from the molar mass of the structure shown. Where two headings read alike, the source gives them in different places. Starred links: 1 amine or outer side, 2 acyl side, 3 side chain; linkers in the order of their positions; H or OH if unused. Positions of bridges follow the written chain, without caps; N, C: chain ends. Residues, ends and D or L forms follow the SMILES beside them. Groups on a side chain read outwards from the residue. *: point of attachment. C20 diacid = O=C(O)CCCCCCCCCCCCCCCCCCC(=O)*; C18 diacid = O=C(O)CCCCCCCCCCCCCCCCC(=O)*; γGlu = O=C(O)[C@H](CCC(=O)[*:2])N[*:1]; AEEA = NCCOCCOCC(=O)O

Legend:
[1] = Assay (IV) determination of solubility; type: physicochemical
How it was run: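 Polypeptide in water (~500 nmol/ml) mixed 1:1 with 100 mM glycylglycine (pH 3.0–5.0) or bistrispropane (pH 6.0–8.0) buffers. Held 18 hours at room temperature, then centrifuged. Polypeptide remaining in solution quantified by HPLC.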

[2] = Assay (III) ThT fibrillation assay for physical stability; type: physicochemical
How it was run: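 Freshly prepared formulations, pH-adjusted, with 1 μM ThT; four or eight replicates incubated at 37 °C under 960 rpm orbital shaking. Fluorescence (ex 444/em 485 nm) read every 20 min; […]. Peptide concentration measured by RP-HPLC before and after the run.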

[3] = bistrispropane buffer, pH 6, pH 6.0, read-out: Solubility pH 6.0
[4] = bistrispropane buffer, pH 6.5, pH 6.5, read-out: Solubility pH 6.5
[5] = bistrispropane buffer, pH 7, pH 7.0, 18 hours at room temperature, Table 3, read-out: Solubility pH 7.0
[6] = bistrispropane buffer, pH 7, pH 7.0, Table 8, read-out: Solubility pH 7.0
[7] = bistrispropane buffer, pH 7, pH 7.0, read-out: Solubility pH 7.0
[8] = bistrispropane buffer, pH 7.5, pH 7.5, read-out: Solubility pH 7.5
[9] = bistrispropane buffer, pH 8, pH 8.0, read-out: Solubility pH 8.0
[10] = glycylglycine buffer, pH 3, pH 3.0, read-out: Solubility pH 3.0
[11] = glycylglycine buffer, pH 4, pH 4.0, 18 hours at room temperature, Table 2, read-out: Solubility pH 4.0
[12] = glycylglycine buffer, pH 4, pH 4.0, read-out: Solubility pH 4.0
[13] = glycylglycine buffer, pH 5, pH 5.0, read-out: Solubility pH 5.0
[14] = bistrispropane buffer, pH 7, pH 7.0, Table 9, read-out: Solubility pH 7.0
[15] = bistrispropane buffer, pH 7.5, pH 7.5, Table 9, read-out: Solubility pH 7.5

## CC[C@H](C)[C@H](NC(=O)[C@H](CCCCNC(=O)COCCOCCNC(=O)COCCOCCNC(=O)CC[C@H](NC(=O)CCCCCCCCCCCCCCCCC(=O)O)C(=O)O)NC(=O)CNC(=O)[C@H](Cc1ccccc1)NC(=O)[C@H](CC(N)=O)NC(=O)[C@H](CC(N)=O)NC(=O)[C@H](CO)NC(=O)[C@H](CO)NC(=O)[C@H](Cc1c[nH]cn1)NC(=O)[C@H](Cc1c[nH]cn1)NC(=O)[C@H](CC(C)C)NC(=O)[C@H](Cc1ccccc1)NC(=O)[C@H](CCC(=O)O)NC(=O)[C@H](C)NC(=O)[C@H](CC(C)C)NC(=O)[C@H](CCCNC(=N)N)NC(=O)[C@H](CCC(N)=O)NC(=O)[C@@H](NC(=O)[C@H](C)NC(=O)[C@@H]1CSSC[C@H](NC(=O)[C@@H](N)CCCCN)C(=O)N[C@@H](CC(N)=O)C(=O)N[C@@H]([C@@H](C)O)C(=O)N[C@@H](C)C(=O)N[C@@H]([C@@H](C)O)C(=O)N1)[C@@H](C)O)C(=O)N[C@@H](CC(C)C)C(=O)N1CCC[C@H]1C(=O)N1CCC[C@H]1C(=O)N[C@H](C(=O)N[C@@H](CC(N)=O)C(=O)N[C@H](C(=O)NCC(=O)N[C@@H](CO)C(=O)N[C@@H](CC(N)=O)C(=O)N[C@H](C(=O)N[C@@H](Cc1ccc(O)cc1)C(N)=O)[C@@H](C)O)C(C)C)[C@@H](C)O [Example 73, N-epsilon25-[2-(2-{2-[2-(2-{2-[(S)-4-Carboxy-4-(17-carboxyheptadecanoylamino)butyrylamino]ethoxy}ethoxy)acetylamino]ethoxy}ethoxy)acetyl]-[Glu14,His17,Lys25]-pramlintide] (H-KCNTATCATQRLAEFLHHSSNNFGK([AEEA-AEEA-γGlu-C18 diacid])ILPPTNVGSNTY-NH2; disulfide 2-7 (inferred); N-terminus and C-terminus assumed)
[1]; [3]
  solubility at 18 h: > 200 µM
[1]; [4]
  solubility at 18 h: > 200 µM
[1]; [5]
  solubility at 18 h: 155 µM (≈ 736 µg/mL)
[1]; [6]
  solubility at 18 h: 155 µM (≈ 736 µg/mL)
[1]; [7]
  solubility at 18 h: 155 µM (≈ 736 µg/mL)
[1]; [8]
  solubility at 18 h: 169 µM (≈ 803 µg/mL)
[1]; [9]
  solubility at 18 h: > 200 µM
[1]; [10]
  solubility at 18 h: > 200 µM
[1]; [11]
  solubility at 18 h: > 200 µM
[1]; [12]
  solubility at 18 h: > 200 µM
[1]; [13]
  solubility at 18 h: > 200 µM
[2]; Table 8
  ThT pH 4.0 lag time: >45 h
[2]; ThT fibrillation assay
  ThT pH 4.0 lag time: >45 h
  ThT pH 4.0 lag time (h): >45 h

## CC[C@H](C)[C@H](NC(=O)[C@@H]1CCCN1C(=O)CNC(=O)[C@H](Cc1ccccc1)NC(=O)[C@H](CC(N)=O)NC(=O)[C@H](CC(N)=O)NC(=O)[C@H](CO)NC(=O)[C@H](CO)NC(=O)[C@H](Cc1c[nH]cn1)NC(=O)[C@H](Cc1c[nH]cn1)NC(=O)[C@H](CC(C)C)NC(=O)[C@H](Cc1ccccc1)NC(=O)[C@H](CCC(=O)O)NC(=O)[C@H](C)NC(=O)[C@H](CC(C)C)NC(=O)[C@H](CCCNC(=N)N)NC(=O)[C@H](CCC(N)=O)NC(=O)[C@@H](NC(=O)[C@H](C)NC(=O)[C@@H]1CSSC[C@H](NC(=O)[C@H](Cc2c[nH]cn2)NC(=O)CC[C@H](NC(=O)CCCCCCCCCCCCCCCCCCC(=O)O)C(=O)O)C(=O)N[C@@H](CC(N)=O)C(=O)N[C@@H]([C@@H](C)O)C(=O)N[C@@H](C)C(=O)N[C@@H]([C@@H](C)O)C(=O)N1)[C@@H](C)O)C(=O)N[C@@H](CC(C)C)C(=O)N1CCC[C@H]1C(=O)N1CCC[C@H]1C(=O)N[C@H](C(=O)N[C@@H](CC(N)=O)C(=O)N[C@H](C(=O)NCC(=O)N[C@@H](CO)C(=O)N[C@@H](Cc1c[nH]cn1)C(=O)N[C@H](C(=O)N[C@@H](Cc1ccc(O)cc1)C(N)=O)[C@@H](C)O)C(C)C)[C@@H](C)O [Example 76, N-alpha-[(S)-4-Carboxy-4-(19-carboxynonadecanoylamino)butyryl]-[His1,Glu14,His17,His35]-pramlintide] ({C20 diacid-γGlu}-HCNTATCATQRLAEFLHHSSNNFGPILPPTNVGSHTY-NH2; disulfide 2-7 (inferred); C-terminus assumed)
[1]; [3]
  solubility at 18 h: 45 µM (≈ 202 µg/mL)
[1]; [4]
  solubility at 18 h: 1 µM (≈ 4.49 µg/mL)
[1]; [7]
  solubility at 18 h: 4 µM (≈ 18 µg/mL)
[1]; [8]
  solubility at 18 h: 104 µM (≈ 467 µg/mL)
[1]; [9]
  solubility at 18 h: > 200 µM
[1]; [10]
  solubility at 18 h: > 200 µM
[1]; [11]
  solubility at 18 h: > 200 µM
[1]; [12]
  solubility at 18 h: > 200 µM
[1]; [13]
  solubility at 18 h: > 200 µM
[2]; ThT fibrillation assay
  ThT pH 4.0 lag time: >45 h
  ThT pH 4.0 lag time (h): >45 h

## CC[C@H](C)[C@H](NC(=O)[C@@H]1CCCN1C(=O)CNC(=O)[C@H](Cc1ccccc1)NC(=O)[C@H](CC(N)=O)NC(=O)[C@H](CC(N)=O)NC(=O)[C@H](CO)NC(=O)[C@H](CO)NC(=O)[C@H](Cc1c[nH]cn1)NC(=O)[C@H](CCCNC(=N)N)NC(=O)[C@H](CC(C)C)NC(=O)[C@H](Cc1ccccc1)NC(=O)[C@H](CCC(=O)O)NC(=O)[C@H](C)NC(=O)[C@H](CC(C)C)NC(=O)[C@H](CCCNC(=N)N)NC(=O)[C@H](CCC(N)=O)NC(=O)[C@@H](NC(=O)[C@H](C)NC(=O)[C@@H]1CSSC[C@H](NC(=O)CNC(=O)CC[C@H](NC(=O)CCCCCCCCCCCCCCCCCCC(=O)O)C(=O)O)C(=O)N[C@@H](CC(N)=O)C(=O)N[C@@H]([C@@H](C)O)C(=O)N[C@@H](C)C(=O)N[C@@H]([C@@H](C)O)C(=O)N1)[C@@H](C)O)C(=O)N[C@@H](CC(C)C)C(=O)N1CCC[C@H]1C(=O)N1CCC[C@H]1C(=O)N[C@H](C(=O)N[C@@H](CC(N)=O)C(=O)N[C@H](C(=O)NCC(=O)N[C@@H](CO)C(=O)N[C@@H](CC(N)=O)C(=O)N[C@H](C(=O)N1CCC[C@H]1C(N)=O)[C@@H](C)O)C(C)C)[C@@H](C)O [Example 88, N-alpha-[(S)-4-Carboxy-4-(19-carboxynonadecanoylamino)butyryl]-[Gly1,Glu14,Arg17,Pro37]-pramlintide] ({C20 diacid-γGlu}-GCNTATCATQRLAEFLRHSSNNFGPILPPTNVGSNTP-NH2; disulfide 2-7 (inferred); C-terminus assumed)
[1]; [3]
  solubility at 18 h: > 200 µM
[1]; [4]
  solubility at 18 h: > 200 µM
[1]; [5]
  solubility at 18 h: > 200 µM
[1]; [6]
  solubility at 18 h: > 200 µM
[1]; [14]
  solubility at 18 h: > 200 µM
[1]; [7]
  solubility at 18 h: > 200 µM
[1]; [15]
  solubility at 18 h: > 200 µM
[1]; [8]
  solubility at 18 h: > 200 µM
[1]; [9]
  solubility at 18 h: > 200 µM
[1]; [10]
  solubility at 18 h: > 200 µM
[1]; [11]
  solubility at 18 h: > 200 µM
[1]; [12]
  solubility at 18 h: > 200 µM
[1]; [13]
  solubility at 18 h: > 200 µM
[2]; Table 8
  ThT pH 4.0 lag time: >45 h
[2]; Table 9
  ThT pH 4.0 lag time: >45 h
[2]; ThT fibrillation assay
  ThT pH 4.0 lag time: >45 h
  ThT pH 4.0 lag time (h): >45 h

## CC[C@H](C)[C@H](NC(=O)[C@@H]1CCCN1C(=O)CNC(=O)[C@H](Cc1ccccc1)NC(=O)[C@H](CC(N)=O)NC(=O)[C@H](CC(N)=O)NC(=O)[C@H](CO)NC(=O)[C@H](CO)NC(=O)[C@H](Cc1c[nH]cn1)NC(=O)[C@H](CCCNC(=N)N)NC(=O)[C@H](CC(C)C)NC(=O)[C@H](Cc1ccccc1)NC(=O)[C@H](CCC(=O)O)NC(=O)[C@H](C)NC(=O)[C@H](CC(C)C)NC(=O)[C@H](CCCNC(=N)N)NC(=O)[C@H](CCC(N)=O)NC(=O)[C@@H](NC(=O)[C@H](C)NC(=O)[C@@H]1CSSC[C@H](NC(=O)[C@H](Cc2c[nH]cn2)NC(=O)CNC(=O)CC[C@H](NC(=O)CCCCCCCCCCCCCCCCCCC(=O)O)C(=O)O)C(=O)N[C@@H](CC(N)=O)C(=O)N[C@@H]([C@@H](C)O)C(=O)N[C@@H](C)C(=O)N[C@@H]([C@@H](C)O)C(=O)N1)[C@@H](C)O)C(=O)N[C@@H](CC(C)C)C(=O)N1CCC[C@H]1C(=O)N1CCC[C@H]1C(=O)N[C@H](C(=O)N[C@@H](CC(N)=O)C(=O)N[C@H](C(=O)NCC(=O)N[C@@H](CO)C(=O)N[C@@H](CC(N)=O)C(=O)N[C@H](C(=O)N1CCC[C@H]1C(N)=O)[C@@H](C)O)C(C)C)[C@@H](C)O [Example 89, N-alpha-[(S)-4-Carboxy-4-(19-carboxynonadecanoylamino)butyryl]-Gly-[His1,Glu14,Arg17,Pro37]-pramlintide] ({C20 diacid-γGlu}-GHCNTATCATQRLAEFLRHSSNNFGPILPPTNVGSNTP-NH2; disulfide 3-8 (inferred))
[1]; [3]
  solubility at 18 h: > 200 µM
[1]; [4]
  solubility at 18 h: > 200 µM
[1]; [5]
  solubility at 18 h: > 200 µM
[1]; [6]
  solubility at 18 h: > 200 µM
[1]; [14]
  solubility at 18 h: > 200 µM
[1]; [7]
  solubility at 18 h: > 200 µM
[1]; [15]
  solubility at 18 h: > 200 µM
[1]; [8]
  solubility at 18 h: > 200 µM
[1]; [9]
  solubility at 18 h: > 200 µM
[1]; [10]
  solubility at 18 h: > 200 µM
[1]; [11]
  solubility at 18 h: > 200 µM
[1]; [12]
  solubility at 18 h: > 200 µM
[1]; [13]
  solubility at 18 h: > 200 µM
[2]; Table 8
  ThT pH 4.0 lag time: >45 h
[2]; Table 9
  ThT pH 4.0 lag time: >45 h
[2]; ThT fibrillation assay
  ThT pH 4.0 lag time: >45 h
  ThT pH 4.0 lag time (h): >45 h
